Laboratory results taken from US8440830B2, “Tetrahydro-fused pyridines as histone deacetylase inhibitors” (4SC AG, priority 2007, dated 2013).

system: A549 NSCLC cells; experiment: Cellular cytotoxicity assay (Alamar Blue), A549; type: cell-based; conditions: Homo sapiens, 72 h, upper end given as ≧100, read-out: IC50 (μM), cytotoxicity towards A549 NSCLC cells
In short: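 Cells were dosed 24 h after seeding with semi-log compound dilutions in quadruplicate, then incubated 72 h at 37 °C, 5% CO2. Viability read by Resazurin reduction (4 h, fluorescence 544/590 nm) relative to untreated 0.5% DMSO controls; IC50 by non-linear regression.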

**Q.** `Nc1ccccc1NC(=O)c1nc2c(s1)CN(C(=O)C(=O)Nc1cnc3ccccc3c1)CC2` [Example 77, N-(2-aminophenyl)-5-[oxo(quinolin-3-ylamino)acetyl]-4,5,6,7-tetrahydro-[1,3]thiazolo[5,4-c]pyridine-2-carboxamide] was tested. Which IC50 did it give?
**A.** Its IC50 is at least 0.2 µM.

**Q.** How did the IC50 turn out when `CCCCNC(=O)C(=O)N1CCc2nc(C(=O)Nc3cc(C(C)C)ccc3N)sc2C1` [Example 84, N-(2-amino-5-isopropylphenyl)-5-[(butylamino)(oxo)acetyl]-4,5,6,7-tetrahydro[1,3]thiazolo[5,4-c]pyridine-2-carboxamide] was run?
**A.** Its IC50 is at least 0.2 µM.

**Q.** `Cc1ccc(NC(=O)C(=O)N2CCc3nc(C(=O)Nc4ccccc4N)sc3C2)cc1` [Example 75, N-(2-aminophenyl)-5-{[(4-methylphenyl)amino](oxo)acetyl}-4,5,6,7-tetrahydro[1,3]thiazolo[5,4-c]pyridine-2-carboxamide] was tested. Which IC50 did it give?
**A.** Its IC50 is at least 0.2 µM.

**Q.** Which IC50 does the source give for `Nc1ccccc1NC(=O)c1nc2c(s1)CN(C(=O)C(=O)Nc1ccc3c(c1)OCO3)CC2` [Example 74, N-(2-aminophenyl)-5-[(1,3-benzodioxol-5-ylamino)(oxo)acetyl]-4,5,6,7-tetrahydro[1,3]thiazolo[5,4-c]pyridine-2-carboxamide] here?
**A.** The IC50 was at least 0.2 µM.

**Q.** `COc1ccc(N)c(NC(=O)c2nc3c(s2)CN(C(=S)Nc2ccccc2)CC3)c1` [Example 102, N-(2-amino-5-methoxyphenyl)-5-(anilinocarbonothioyl)-4,5,6,7-tetrahydro[1,3]thiazolo[5,4-c]pyridine-2-carboxamide] was tested. Which IC50 did it give?
**A.** The IC50 was at least 0.2 µM.

**Q.** How did the IC50 turn out when `Nc1ccccc1NC(=O)c1nc2c(s1)CN(C(=O)OCc1ccccc1)CC2` [Example 188, Benzyl 2-[(2-aminophenyl)carbamoyl]-6,7-dihydro[1,3]thiazolo[5,4-c]pyridine-5(4H)-carboxylate] was run?
**A.** Its IC50 is at least 0.2 µM.

**Q.** Which IC50 does the source give for `Nc1ccccc1NC(=O)c1nc2c(s1)CN(C(=S)Nc1cccc3cnccc13)CC2` [Example 104, N-(2-aminophenyl)-5-[(isoquinolin-5-ylamino)carbonothioyl]-4,5,6,7-tetrahydro[1,3]thiazolo[5,4-c]pyridine-2-carboxamide] here?
**A.** Its IC50 is at least 0.2 µM.

**Q.** How did the IC50 turn out when `CC(C)c1ccc(N)c(NC(=O)c2nc3c(s2)CN(C(=S)Nc2ccccc2)CC3)c1` [Example 109, N-(2-amino-5-isopropylphenyl)-5-(anilinocarbonothioyl)-4,5,6,7-tetrahydro[1,3]thiazolo[5,4-c]pyridine-2-carboxamide] was run?
**A.** The IC50 was at least 0.2 µM.

**Q.** How did the IC50 turn out when `Nc1ccccc1NC(=O)c1nc2c(s1)CN(S(=O)(=O)c1ccc(OC(F)F)cc1)CC2` [Example 166, N-(2-aminophenyl)-5-{[4-(difluoromethoxy)phenyl]sulfonyl}-4,5,6,7-tetrahydro[1,3]thiazolo[5,4-c]pyridine-2-carboxamide] was run?
**A.** Its IC50 is at least 0.2 µM.

**Q.** How did the IC50 turn out when `COc1ccc(NC(=C[N+](=O)[O-])N2CCc3nc(C(=O)Nc4cc(C(C)C)ccc4N)sc3C2)cc1` [Example 146, N-[2-amino-5-(1-methylethyl)phenyl]-5-{1-[(4-methoxyphenyl)amino]-2-nitroethenyl}-4,5,6,7-tetrahydro[1,3]thiazolo[5,4-c]pyridine-2-carboxamide] was run?
**A.** The IC50 was at least 0.2 µM.

**Q.** How did the IC50 turn out when `COc1ccc(NC(=S)N2CCc3nc(C(=O)Nc4cc(OC)ccc4N)sc3C2)cc1` [Example 106, N-(2-amino-5-methoxyphenyl)-5-{[(4-methoxyphenyl)amino]carbonothioyl}-4,5,6,7-tetrahydro[1,3]thiazolo[5,4-c]pyridine-2-carboxamide] was run?
**A.** Its IC50 is at least 0.2 µM.

**Q.** For `Cc1ccccc1NC(=NC#N)N1CCc2nc(C(=O)Nc3ccccc3N)sc2C1` [Example 119, N-(2-aminophenyl)-5-{(cyanoimino)[(2-methylphenyl)amino]methyl}-4,5,6,7-tetrahydro[1,3]thiazolo[5,4-c]pyridine-2-carboxamide], which IC50 is on record?
**A.** Its IC50 is at least 0.2 µM.

**Q.** For `CCN(C(=O)N1CCc2nc(C(=O)Nc3ccccc3N)sc2C1)C(C)C` [Example 21, N^2-(2-aminophenyl)-N^5-ethyl-N^5-isopropyl-6,7-dihydro[1,3]thiazolo[5,4-c]-pyridine-2,5(4H)-dicarboxamide], which IC50 is on record?
**A.** Its IC50 is at least 0.2 µM.

**Q.** How did the IC50 turn out when `CC(=Nc1ccccc1)N1CCc2nc(C(=O)Nc3ccccc3N)sc2C1` [Example 126, N-(2-aminophenyl)-5-[N-phenylethanimidoyl]-4,5,6,7-tetrahydro[1,3]thiazolo[5,4-c]pyridine-2-carboxamide] was run?
**A.** Its IC50 is at least 0.2 µM.

**Q.** Which IC50 does the source give for `COc1ccc(NC(=C[N+](=O)[O-])N2CCc3nc(C(=O)Nc4cc(OC)ccc4N)sc3C2)cc1` [Example 142, N-(2-amino-5-methoxyphenyl)-5-{1-[(4-methoxyphenyl)amino]-2-nitrovinyl}-4,5,6,7-tetrahydro[1,3]thiazolo[5,4-c]pyridine-2-carboxamide] here?
**A.** The IC50 was at least 0.2 µM.

**Q.** For `Nc1ccccc1NC(=O)c1nc2c(s1)CN(c1ccc(NC(=O)NCc3ccccc3)cc1)CC2` [Example 198, N-(2-aminophenyl)-5-{4-[(benzylcarbamoyl)amino]phenyl}-4,5,6,7-tetrahydro[1,3]thiazolo[5,4-c]pyridine-2-carboxamide], which IC50 is on record?
**A.** The IC50 was at least 0.2 µM.

**Q.** For `CC(C)c1ccc(N)c(NC(=O)c2nc3c(s2)CN(C(=O)Nc2ccc(F)cc2)CC3)c1` [Example 52, N^2-(2-amino-5-isopropylphenyl)-N^5-(4-fluorophenyl)-6,7-dihydro[1,3]thiazolo[5,4-c]pyridine-2,5(4H)-dicarboxamide], which IC50 is on record?
**A.** The IC50 was at least 0.2 µM.

**Q.** `Cc1ccc(NC(=O)C(=O)N2CCc3nc(C(=O)Nc4ccccc4N)sc3C2)nc1` [Example 76, N-(2-aminophenyl)-5-{[(5-methylpyridin-2-yl)amino](oxo)acetyl}-4,5,6,7-tetrahydro[1,3]thiazolo[5,4-c]pyridine-2-carboxamide] was tested. Which IC50 did it give?
**A.** Its IC50 is at least 0.2 µM.

**Q.** `Nc1ccccc1NC(=O)c1nc2c(s1)CN(C(=O)Oc1ccc(-c3ccccc3)cc1)CC2` [Example 181, Biphenyl-4-yl 2-[(2-aminophenyl)carbamoyl]-6,7-dihydro[1,3]thiazolo[5,4-c]pyridine-5(4H)-carboxylate] was tested. Which IC50 did it give?
**A.** The IC50 was at least 0.2 µM.

**Q.** For `Nc1ccccc1NC(=O)c1nc2c(s1)CN(C(=O)c1ccc3ccccc3c1)CC2` [Example 95, N-(2-aminophenyl)-5-(2-naphthoyl)-4,5,6,7-tetrahydro[1,3]thiazolo[5,4-c]-pyridine-2-carboxamide], which IC50 is on record?
**A.** Its IC50 is at least 0.2 µM.

**Q.** `COc1ccc(NC(=O)N2CCc3nc(C(=O)Nc4cc(-c5cccs5)ccc4N)sc3C2)cc1` [Example 54, N^2-[2-amino-5-(2-thienyl)phenyl]-N^5-(4-methoxyphenyl)-6,7-dihydro[1,3]thiazolo[5,4-c]pyridine-2,5(4H)-dicarboxamide] was tested. Which IC50 did it give?
**A.** Its IC50 is at least 0.2 µM.

**Q.** For `COC(=O)c1sccc1S(=O)(=O)N1CCc2nc(C(=O)Nc3ccccc3N)sc2C1` [Example 158, Methyl 3-({2-[(2-aminophenyl)carbamoyl]-6,7-dihydro[1,3]thiazolo[5,4-c]pyridin-5(4H)-yl}sulfonyl)thiophene-2-carboxylate], which IC50 is on record?
**A.** Its IC50 is at least 0.2 µM.

**Q.** How did the IC50 turn out when `CCCCCNC(=NC#N)N1CCc2nc(C(=O)Nc3ccccc3N)sc2C1` [Example 121, N-(2-aminophenyl)-5-[(cyanoimino)(pentylamino)methyl]-4,5,6,7-tetrahydro[1,3]thiazolo[5,4-c]pyridine-2-carboxamide] was run?
**A.** The IC50 was at least 0.2 µM.

**Q.** `COc1ccc(N=C(C)N2CCc3nc(C(=O)Nc4cc(C(C)C)ccc4N)sc3C2)cc1OC` [Example 133, N-(2-amino-5-isopropylphenyl)-5-[N-(3,4-dimethoxyphenyl)ethanimidoyl]-4,5,6,7-tetrahydro[1,3]thiazolo[5,4-c]pyridine-2-carboxamide] was tested. Which IC50 did it give?
**A.** Its IC50 is at least 0.2 µM.

**Q.** How did the IC50 turn out when `CCCCNC(=O)C(=O)N1CCc2nc(C(=O)Nc3cc(OC)ccc3N)sc2C1` [Example 83, N-(2-amino-5-methoxyphenyl)-5-[(butylamino)(oxo)acetyl]-4,5,6,7-tetrahydro[1,3]thiazolo[5,4-c]pyridine-2-carboxamide] was run?
**A.** The IC50 was at least 0.2 µM.

**Q.** For `CCCCNC(=S)N1CCc2nc(C(=O)Nc3ccccc3N)sc2C1` [Example 105], which IC50 is on record?
**A.** The IC50 was at least 0.2 µM.

**Q.** For `CC(C)c1ccc(N)c(NC(=O)c2nc3c(s2)CN(C(=O)Nc2cccc4cnccc24)CC3)c1` [Example 49, N^2-(2-amino-5-isopropylphenyl)-N^5-isoquinolin-5-yl-6,7-dihydro[1,3]thiazolo[5,4-c]pyridine-2,5(4H)-dicarboxamide], which IC50 is on record?
**A.** Its IC50 is at least 0.2 µM.

**Q.** Which IC50 does the source give for `Nc1ccccc1NC(=O)c1nc2c(s1)CN(C(=O)C(=O)NC1CCC(c3ccncc3)CC1)CC2` (centres unmarked) [Example 67, N-(2-aminophenyl)-5-{oxo[(4-pyridin-4-ylcyclohexyl)amino]acetyl}-4,5,6,7-tetrahydro[1,3]thiazolo[5,4-c]pyridine-2-carboxamide] here?
**A.** The IC50 was at least 0.2 µM.

**Q.** With `Nc1ccccc1NC(=O)c1nc2c(s1)CN(C(=O)Nc1ccccc1OC(F)F)CC2` [Example 10, N^2-(2-aminophenyl)-N5-[2-(difluoromethoxy)phenyl]-6,7-dihydro[1,3]thiazolo[5,4-c]pyridine-2,5(4H)-dicarboxamide] as the compound, how does the IC50 read?
**A.** The IC50 was at least 0.2 µM.

**Q.** How did the IC50 turn out when `CN(C)c1ccc(NC(=C[N+](=O)[O-])N2CCc3nc(C(=O)Nc4ccccc4N)sc3C2)cc1` [Example 140, N-(2-aminophenyl)-5-[1-{[4-(dimethylamino)phenyl]amino}-2-nitrovinyl]-4,5,6,7-tetrahydro[1,3]thiazolo[5,4-c]pyridine-2-carboxamide] was run?
**A.** Its IC50 is at least 0.2 µM.

**Q.** With `Nc1ccccc1NC(=O)c1nc2c(s1)CN(C(=S)Nc1cccnc1)CC2` [Example 103, N-(2-aminophenyl)-5-[(pyridin-3-ylamino)carbonothioyl]-4,5,6,7-tetrahydro[1,3]thiazolo[5,4-c]pyridine-2-carboxamide] as the compound, how does the IC50 read?
**A.** Its IC50 is at least 0.2 µM.

**Q.** `COc1ccc(N=C(C)N2CCc3nc(C(=O)Nc4cc(OC)ccc4N)sc3C2)cc1` [Example 130, N-(2-amino-5-methoxyphenyl)-5-[N-(4-methoxyphenyl)ethanimidoyl]-4,5,6,7-tetrahydro[1,3]thiazolo[5,4-c]pyridine-2-carboxamide] was tested. Which IC50 did it give?
**A.** The IC50 was at least 0.2 µM.
